Where two headings read alike, the source gives them in different places. No end group written: not given here.

Experimental findings from article PMC12300298, “Expanding the Antiviral Spectrum of Scorpion-Derived Peptides Against Toscana Virus and Schmallenberg Virus” (Pathogens, 2025) are described below.

The test system of series [1] is SBV. The following applies: 48 h.
The subject of a further series is A-72 cells. As to the kind of experiment: MTT cytotoxicity, A-72 cells. It counts as cell-based, canine. The following applies: 24 h peptide treatment, 3-200 µM, 37 °C, absorbance 570 nm, nonlinear regression, at least three independent experiments. Here is the method: (§1) BHK-21, U-87 MG, A-72, and CRFK cells were seeded in 96-well plates at an initial density of 2 × 10^4 cells per well and incubated for 24 h at 37 °C. Then, serial dilutions of peptides ranging from 3 to 200 µM were added to the cell monolayer and incubated for 24 h at 37 °C. Cytotoxicity was evaluated by adding 5 μL of methylthiazolyldiphenyl-tetrazolium bromide (MTT; cod. M2003, Sigma-Aldrich, St. Louis, MO, USA) to each well. After 4 h of incubation, the plate was emptied, and formazan crystals were solubilized with dimethyl sulfoxide (DMSO; 100%). Cell viability was calculated by measuring absorbance at 570 nm using a microplate reader. The negative control (CTRL−, toxicity control) consisted of cells treated with DMSO, while the positive control (CTRL+, viable cells) included untreated cells.
(§2) All tests were performed in triplicate and expressed as mean ± standard deviation (SD). Graphs and statistical analysis were generated using GraphPad Prism version 9.5.1 for macOS (GraphPad Software, San Diego, CA, USA, www.graphpad.com, accessed on 5 February 2025). The 50% cytotoxic concentration (CC50) and the 50% inhibitory concentration (IC50) were calculated by nonlinear regression analysis based on dose–response curves generated from at least three independent experiments.

For series [2], the system named is SBV. The following applies: 48 h. This is another data set of the same source.
Series [3] has as its system BHK-21, A-72, CRFK, and U-87 MG cells. As to the kind of experiment: MTT cytotoxicity, statements for all tested cell lines. It counts as cell-based. Conditions: 24 h, concentrations of 50 μM and below. The method, then:
as §1

The next series concerns CRFK cells. In words: MTT cytotoxicity, CRFK cells. It counts as cell-based, feline. Conditions: 24 h peptide treatment, 3-200 µM, 37 °C, absorbance 570 nm, nonlinear regression, at least three independent experiments. The method, then:
as §1, §2

For another series, the system named is BHK-21 cells. In words: MTT cytotoxicity, BHK-21 cells. In kind it is cell-based, hamster. The following applies: 24 h peptide treatment, 3-200 µM, 37 °C, absorbance 570 nm, nonlinear regression, at least three independent experiments. The method, then:
as §1, §2

The next series deals with U-87 MG cells. As to the kind of experiment: MTT cytotoxicity, U-87 MG cells. It counts as cell-based, human. The following applies: 24 h peptide treatment, 3-200 µM, 37 °C, absorbance 570 nm, nonlinear regression, at least three independent experiments. The method, then: as §1, §2
For series [4], the system named is SBV. Conditions: 1 h.
The subject of series [5] is TOSV. The following applies: 24 h.
In series [6] the test system is TOSV. The following applies: 24 h. The source holds these as a separate data set.
Series [7] deals with TOSV. Conditions: 24 h. The source holds these as a separate data set.

As usually defined, the IC50 is the concentration at which inhibition is half-maximal. Read a low IC50 as greater potency in that assay. For orientation: CC50 means the concentration that lowers cell viability or growth by half. On to GILGKLWEGFKSIV-NH2 [pantinin-1], for which the results for the IC50 with SBV [1], with SBV [2] and in the series with SBV [4] were 5.8 µM, 6 µM and 12.8 µM, respectively. Besides, the CC50 with A-72 cells is given as 93.6 µM; with CRFK cells, 93.5 µM; in the series on BHK-21 cells, 136.6 µM; in the series on U-87 MG cells it was 114.3 µM. For the same substance, the “Cytotoxicity at 50 μM and below” value in [3] is on record as “neither pantinin-1 nor pantinin-2 induced any detectable cytotoxicity”.
On to IFGAIWKGISSLL-NH2 [pantinin-2], for which the CC50 with A-72 cells is 90.7 µM; with CRFK cells it was 82.2 µM; with BHK-21 cells, 100.8 µM; in the series with U-87 MG cells it was 82 µM. Besides, the IC50 in the series on TOSV [5] came to 3000 nM; in the series on TOSV [6] it was 3000 nM; in the series on SBV [4] it was 4.8 µM; with TOSV [7] it was 3000 nM. Also, the “Cytotoxicity at 50 μM and below” value in series [3] is “neither pantinin-1 nor pantinin-2 induced any detectable cytotoxicity”.
